According to patent US10689377B2 (Mirati Therapeutics, Inc., priority 2017, dated 2020):

How the values were obtained:
KRas G12C [1] = molecular target: KRas G12C (Homo sapiens, UniProt P01116, C118S/C51S/C80L/G12C); test: KRas G12C Modification Assay (LCMS detection of covalent adduct); format: binding; conditions: normalized percent of control; 5 μM concentration for 3 hours
Procedure, shortened: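 Intact protein analysed by LC/MS with deconvolution; unmodified protein signal normalized to no-compound control and reported as percent of control (POC).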

KRas G12C [2] = molecular target: KRas G12C (Homo sapiens, UniProt P01116, G12C); test: Cellular inhibition of KRas G12C measured by Phospho-ERK in NCI-H358 cells; format: cell-based; conditions: pERK(Thr202/Tyr204) normalized with GAPDH, NCI-H358 cells, 3 hours; read-out: IC50
Procedure, shortened: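 Following 8-12 h attachment, NCI-H358 cells got serially diluted compound (0.5% DMSO) for 3 hours. Cells were then fixed, permeabilized with cold methanol, and stained for pERK(Thr202/Tyr204) and GAPDH. Ratios were converted to percent of DMSO control, with IC50 obtained by four-parameter regression.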

| Compound | POC (KRas G12C [1]) | IC50 (KRas G12C [2]) [µM] |
| --- | --- | --- |
| Cc1cccc2cccc(N3CCc4c(nc(OCCCN5C[C@@H]6C[C@H]5CO6)nc4N4CCN(C(=O)/C=C/CF)[C@@H](CC#N)C4)C3)c12 [Example 565, 2-[(2S)-1-[(E)-4-Fluorobut-2-enoyl]-4-[7-(8-methyl-1-naphthyl)-2-[3-[(1S,4S)-2-oxa-5-azabicyclo[2.2.1]heptan-5-yl]propoxy]-6,8-dihydro-5H-pyrido[3,4-d]pyrimidin-4-yl]piperazin-2-yl]acetonitrile] | C (“C”>50% POC) | 0.0001 to 1 |
| C=C(F)C(=O)N1CCN(c2nc(OCCCN3C[C@@H]4C[C@H]3CO4)nc3c2CCN(c2cccc4cccc(C)c24)C3)C[C@@H]1CC#N [Example 566, 2-[(2S)-1-(2-Fluoroprop-2-enoyl)-4-[7-(8-methyl-1-naphthyl)-2-[3-[(1S,4S)-2-oxa-5-azabicyclo[2.2.1]heptan-5-yl]propoxy]-6,8-dihydro-5H-pyrido[3,4-d]pyrimidin-4-yl]piperazin-2-yl]acetonitrile] | C (“C”>50% POC) | 0.0001 to 1 |
| C=C(F)C(=O)N1CCN(c2nc(OC[C@@H]3CCCN3C)nc3c2CCN(c2cccc4cccc(CO)c24)C3)C[C@@H]1CC#N [Example 567, 2-[(2S)-1-(2-Fluoroprop-2-enoyl)-4-[7-[8-(hydroxymethyl)-1-naphthyl]-2-[[(2S)-1-methylpyrrolidin-2-yl]methoxy]-6,8-dihydro-5H-pyrido[3,4-d]pyrimidin-4-yl]piperazin-2-yl]acetonitrile] | C (“C”>50% POC) | > 1 |
| C=C(F)C(=O)N1CCN(c2nc(OC[C@@H]3CCCN3)nc3c2CCN(c2cccc4cccc(C)c24)C3)C[C@@H]1CC#N [Example 568, 2-[(2S)-1-(2-Fluoroprop-2-enoyl)-4-[7-(8-methyl-1-naphthyl)-2-[[(2S)-pyrrolidin-2-yl]methoxy]-6,8-dihydro-5H-pyrido[3,4-d]pyrimidin-4-yl]piperazin-2-yl]acetonitrile] | C (“C”>50% POC) | 0.0001 to 1 |
| C=C(F)C(=O)N1CCN(c2nc(OC[C@@H]3CCCN3)nc3c2CCN(c2cccc4cccc(Cl)c24)C3)C[C@@H]1CC#N [Example 571, 2-((S)-4-(7-(8-Chloronaphthalen-1-yl)-2-((S)-pyrrolidin-2-ylmethoxy)-5,6,7,8-tetrahydropyrido[3,4-d]pyrimidin-4-yl)-1-(2-fluoroacryloyl)piperazin-2-yl)acetonitrile] | C (“C”>50% POC) | 0.0001 to 1 |
| C=C(F)C(=O)N1CCN(c2nc(OC[C@@H]3CCC(=O)N3C)nc3c2CCN(c2cccc4cccc(Cl)c24)C3)C[C@@H]1CC#N [Example 572, 2-[(2S)-4-[7-(8-Chloro-1-naphthyl)-2-[[(2S)-1-methyl-5-oxo-pyrrolidin-2-yl]methoxy]-6,8-dihydro-5H-pyrido [3,4-d]pyrimidin-4-yl]-1-(2-fluoroprop-2-enoyl)piperazin-2-yl] acetonitrile] | C (“C”>50% POC) | > 1 |
| C=C(F)C(=O)N1CCN(c2nc(OC[C@@H]3C[C@@H](F)CN3C)nc3c2CCN(c2cccc4cccc(Cl)c24)C3)C[C@@H]1CC#N [Example 574, 2-[(2S)-4-[7-(8-Chloro-1-naphthyl)-2-[[(2S,4R)-4-fluoro-1-methyl-pyrrolidin-2-yl]methoxy]-6,8-dihydro-5H-pyrido[3,4-d]pyrimidin-4-yl]-1-(2-fluoroprop-2-enoyl)piperazin-2-yl] acetonitrile] | C (“C”>50% POC) | 0.0001 to 1 |
| C=C(F)C(=O)N1CCN(c2nc(OC[C@@H]3CCN(C)C3)nc3c2CCN(c2cccc4cccc(Cl)c24)C3)C[C@@H]1CC#N [Example 575, 2-[(2S)-4-[7-(8-Chloro-1-naphthyl)-2-[[(3R)-1-methylpyrrolidin-3-yl]methoxy]-6,8-dihydro-5H-pyrido[3,4-d]pyrimidin-4-yl]-1-(2-fluoroprop-2-enoyl)piperazin-2-yl]acetonitrile] | C (“C”>50% POC) | 0.0001 to 1 |
| C=C(F)C(=O)N1CCN(c2nc(OC[C@H]3C[C@@H](OC)CN3C)nc3c2CCN(c2cccc4cccc(Cl)c24)C3)C[C@@H]1CC#N [Example 576, 2-[(2S)-4-[7-(8-Chloro-1-naphthyl)-2-[[(2R,4R)-4-methoxy-1-methyl-pyrrolidin-2-yl]methoxy]-6,8-dihydro-5H-pyrido[3,4-d]pyrimidin-4-yl]-1-(2-fluoroprop-2-enoyl)piperazin-2-yl]acetonitrile] | C (“C”>50% POC) | 0.0001 to 1 |

Results, then the compound that gave them:

| POC (KRas G12C [1]) | IC50 (KRas G12C [2]) [µM] | Compound |
| --- | --- | --- |
| C (“C”>50% POC) | 0.0001 to 1 | C=C(F)C(=O)N1CCN(c2nc(OCCN(C)C)nc3c2CCN(c2cccc4cccc(C)c24)C3)C[C@@H]1CC#N [Example 559, 2-[(2S)-4-[2-[2-(Dimethylamino)ethoxy]-7-(8-methyl-1-naphthyl)-6,8-dihydro-5H-pyrido[3,4-d]pyrimidin-4-yl]-1-(2-fluoroprop-2-enoyl)piperazin-2-yl]acetonitrile] |
| C (“C”>50% POC) | 0.0001 to 1 | C=C(F)C(=O)N1CCN(c2nc(OC[C@@H]3C[C@@H](F)CN3C)nc3c2CCN(c2cccc4cccc(C)c24)C3)C[C@@H]1CC#N [Example 560, 2-[(2S)-4-[2-[[(2S,4R)-4-Fluoro-1-methyl-pyrrolidin-2-yl]methoxy]-7-(8-methyl-1-naphthyl)-6,8-dihydro-5H-pyrido[3,4-d]pyrimidin-4-yl]-1-(2-fluoroprop-2-enoyl)piperazin-2-yl]acetonitrile] |
| C (“C”>50% POC) | 0.0001 to 1 | C=C(F)C(=O)N1CCN(c2nc(OC[C@@H]3C[C@@H](OC)CN3C)nc3c2CCN(c2cccc4cccc(C)c24)C3)C[C@@H]1CC#N [Example 561, 2-[(2S)-1-(2-Fluoroprop-2-enoyl)-4-[2-[[(2S,4R)-4-methoxy-1-methyl-pyrrolidin-2-yl]methoxy]-7-(8-methyl-1-naphthyl)-6,8-dihydro-5H-pyrido[3,4-d]pyrimidin-4-yl]piperazin-2-yl]acetonitrile] |
| C (“C”>50% POC) | 0.0001 to 1 | C=C(F)C(=O)N1CCN(c2nc(OC[C@@H]3CCN(C)C3)nc3c2CCN(c2cccc4cccc(C)c24)C3)C[C@@H]1CC#N [Example 562, 2-[(2S)-1-(2-Fluoroprop-2-enoyl)-4-[7-(8-methyl-1-naphthyl)-2-[[(3R)-1-methylpyrrolidin-3-yl]methoxy]-6,8-dihydro-5H-pyrido[3,4-d]pyrimidin-4-yl]piperazin-2-yl]acetonitrile] |
| C (“C”>50% POC) | 0.0001 to 1 | Cc1cccc2cccc(N3CCc4c(nc(OC[C@H]5CCCN5C)nc4N4CCN(C(=O)/C=C/CF)[C@@H](CC#N)C4)C3)c12 [Example 563, 2-[(2S)-1-[(E)-4-Fluorobut-2-enoyl]-4-[7-(8-methyl-1-naphthyl)-2-[[(2R)-1-methylpyrrolidin-2-yl]methoxy]-6,8-dihydro-5H-pyrido[3,4-d]pyrimidin-4-yl]piperazin-2-yl]acetonitrile] |
| C (“C”>50% POC) | 0.0001 to 1 | C=C(F)C(=O)N1CCN(c2nc(OCCCN3C[C@@H]4C[C@H]3CO4)nc3c2CCN(c2cccc4cccc(Cl)c24)C3)C[C@@H]1CC#N [Example 564, 2-[(2S)-4-[7-(8-Chloro-1-naphthyl)-2-[3-[(1S,4S)-2-oxa-5-azabicyclo[2.2.1]heptan-5-yl]propoxy]-6,8-dihydro-5H-pyrido[3,4-d]pyrimidin-4-yl]-1-(2-fluoroprop-2-enoyl)piperazin-2-yl]acetonitrile] |
